Where a name gives a salt, the structure may show the parent alone.
These compounds were tested against T1, Human recombinant full-length MNK1 protein (Homo sapiens, UniProt Q9BUB5) (assay: MNK1 inhibitory activity assay (ADP-Glo in vitro kinase assay)). Conditions: 10 concentration points.
T1 construct: Human recombinant full-length MNK1 protein; purchased Thermo PR9138A
Assay type: biochemical
Description: MNK1 Inhibitory Activity Assay: Evaluation of the effects of compounds of the invention on […] (MNK1) activity using in vitro kinase assays. The experimental methods are summarized as follows: The in vitro activity of MNK1 was determined by measuring the level of ADP produced in the kinase reaction using the ADP-Glo Kinase Assay Kit. The reaction buffer consisted of the following components: 50 mM HEPES, pH 7.5, 10 mM MgCl2, 1 mM EGTA, 0.01% Brij35. Human recombinant full-length MNK1 protein (Thermo, Cat. No. PR9138A) was diluted with a reaction buffer to a 3.13 ng/uL kinase solution. The substrate reaction solution consisted of a substrate diluted to 0.75 mg/ml in reaction buffer ([…], available from […] Domestic Company), 2250 uM ATP, the ADP-Glo reagent and kinase assay solution from Promega kit (Promega, V9102). […] If the compound IC50 value is very low, the initial concentration of the compound can be lowered. To a 384-well assay plate (Thermo, Cat. No. 264706) were added 1 uL of compound solution and 2 uL of MNK1 kinase solution. The mixture was mixed well and incubated for 30 minutes at room temperature; then 2 uL of substrate reaction solution was added, the reaction mixture was incubated for 120 minutes at room temperature. The reaction was terminated after an equal volume of 5uLADP-Glo solution was added, and the remaining ATP was completely consumed. After mixing for 60 minutes at room temperature, 10 ul of the kinase assay solution was added, and the mixture was uniformly mixed, and allowed to stand at room temperature for 40 minutes in the dark. The detection solution converts ADP into new ATP through coupled luciferase/luciferin, and ATP is converted into optical signal by Ultr-GloTM luciferase, which can be detected by Envision. The intensity of the light signal is proportional correlated with the amount of ADP produced in the kinase reaction, therefore, the activity of MNK1 kinase can be determined. In this experiment, the group without protein was used as a negative control (100% inhibition). The group with protein but without compounds was used as a positive control (0% inhibition).

T1 sequence (Q9BUB5 whole entry): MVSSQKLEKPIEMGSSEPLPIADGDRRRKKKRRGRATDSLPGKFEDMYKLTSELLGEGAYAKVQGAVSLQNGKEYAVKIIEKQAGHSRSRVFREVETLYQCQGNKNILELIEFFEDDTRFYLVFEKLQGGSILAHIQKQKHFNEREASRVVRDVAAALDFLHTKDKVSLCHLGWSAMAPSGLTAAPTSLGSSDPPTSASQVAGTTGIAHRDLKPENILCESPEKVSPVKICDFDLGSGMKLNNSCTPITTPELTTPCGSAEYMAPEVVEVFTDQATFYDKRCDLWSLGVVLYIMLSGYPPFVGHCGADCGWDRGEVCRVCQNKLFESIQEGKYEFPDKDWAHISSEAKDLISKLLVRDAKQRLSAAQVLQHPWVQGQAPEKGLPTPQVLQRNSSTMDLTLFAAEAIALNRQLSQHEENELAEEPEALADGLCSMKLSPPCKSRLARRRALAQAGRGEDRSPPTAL

| SMILES | IC50 [nM] |
| --- | --- |
| CCOC(=O)c1c(NC(C)=O)ncnc1Nc1cc2cn[nH]c2cc1OC [Compound 38, 5-((6-(Acetylamino)-5-ethoxycarbonylpyrimidin-4-yl)amino)-6-methoxy-1H-indazole] | 11.9 |
| COc1cc2[nH]ncc2cc1Nc1ncnc(N)c1C(=O)N1CCOCC1 [Compound 41] | 1050 |
| COc1cc2[nH]ncc2cc1Nc1cc(NC(C)=O)ncn1 [Compound 2, 5-(6-Acetylaminopyrimidin-4-ylamino)-6-methoxy-1H-indazole] | 59.5 |
| COc1cc2c(cnn2C(=O)OC(C)(C)C)cc1Nc1cc(NC(=O)C2CC2)ncn1 [Compound 3, 1-tert-Butoxycarbonyl-5-(6-cyclopropionamidopyrimidin-4-ylamino)-6-methoxyindazole] | 11.3 |
| COc1cc2[nH]ncc2cc1Nc1cc(NC2CC2)ncn1 [Compound 31, 5-(6-Cyclopropylaminopyrimidin-4-ylamino)-6-methoxy-1H-indazole formate] | 126 |
| COc1c(Nc2cc(Nc3ncccc3Cl)ncn2)ccc2c1CNC2=O [Compound 83, 5-((6-((3-Chloropyridin-2-yl)amino)pyrimidin-4-yl)amino)-4-methoxyisoindolin-1-one] | 96.6 |
| COc1cc2[nH]ncc2cc1Nc1cc(Nc2ccc(Cl)cn2)ncn1 [Compound 24, 5-(6-((5-Chloropyridin-2-yl)amino)pyrimidin-4-ylamino)-6-methoxy-1H-indazole formate] | 42.2 |
| COc1c(Nc2ncnc3[nH]ncc23)ccc2c1CNC2=O [Compound 81, 5-((1H-Pyrazolo[3,4-d]pyrimidin-4-yl)amino)-4-methoxyisoindolin-1-one] | 103 |
| COc1cc2[nH]ncc2cc1Nc1ncnc2[nH]cnc12 [Compound 58, N-(6-Methoxy-1H-indazol-5-yl)-purin-6-amine] | 6.1 |
| COc1cc2[nH]ncc2cc1Nc1ncnc(N)c1-c1ccccn1 [Compound 44, 5-((6-amino-5-(pyridin-2-yl)pyrimidin-4-yl)amino-6-methoxy-1H-indazole formate] | 1000 |
| COc1cc2[nH]ncc2cc1Nc1ncnc(NC(=O)C2CC2)c1C [Compound 48, 5-((6-(Cyclopropionamido)-5-methylpyrimidin-4-yl)amino)-6-methoxy-1H-indazole] | 187 |
| COc1cc2c(cc1Nc1cc(NC(=O)C3CC3)ncn1)ncn2C(=O)OC(C)(C)C [Compound 60, 1-tert-butoxycarbonyl-5-(6-cyclopropionamidopyrimidin-4-ylamino)-6-methoxybenzimidazole] | 792 |
| COc1cc2[nH]ncc2cc1Nc1cc(-n2ccnc2)ncn1 [Compound 65, N-(6-(1H-Imidazol-1-yl)pyrimidin-4-yl)-6-methoxy-1H-indazol-5-amine formate] | 694 |
| COc1cc2[nH]ncc2cc1Nc1ncncc1OCCN1CCOCC1 [Compound 55, 5-(5-(2-(4-Morpholine)ethoxy)pyrimidin-4-yl) amino)-6-methoxy-1H-indazole formate] | 187 |
| COc1c(Nc2ncncc2OCCN2CCOCC2)ccc2c1CNC2=O [Compound 76, 5-((5-(2-(4-morpholin)ethoxy)pyrimidin-4-yl)amino)-4-methoxyisodihydroindol-1-one formate] | 572 |
| COc1cc2[nH]ncc2cc1Nc1ncnc2c1ncn2C [Compound 59, N-(6-Methoxy-1H-indazol-5-yl)-9-methyl-9H-purin-6-amine] | 432 |
| COc1cc2[nH]ncc2cc1Nc1ncncc1OCCO [Compound 54, 5-(5-(2-Hydroxyethoxy)pyrimidin-4-yl) amino)-6-methoxy-1H-indazole formate] | 34.3 |
| COc1cc2nn(C(=O)C3CC3)cc2cc1Nc1cc(NC(=O)C2CC2)ncn1 [Compound 15, 2-Cyclopropanoyl-5-(6-cyclopropionamidopyrimidin-4-ylamino)-6-methoxyindazole] | 21 |
| COc1cc2[nH]ncc2cc1Nc1cc(Nc2ncccc2Cl)ncn1 [Compound 28, 5-(6-((3-Chloropyridin-2-yl)amino)pyrimidin-4-ylamino)-6-methoxy-1H-indazole] | 539 |
| COc1cc2[nH]ncc2cc1Nc1cc(N)ncn1 [Compound 9, 5-(6-aminopyrimidin-4-ylamino)-6-methoxy-1H-indazole] | 294 |
| COc1cc(Nc2cc3cn[nH]c3cc2OC)ncn1 [Compound 51, 5-(6-Methoxypyrimidin-4-yl) amino)-6-methoxy-1H-indazole formate] | 197 |
| COc1cc2[nH]ncc2cc1Nc1cc(NC(=O)C(C)C)ncn1 [Compound 19, N-(6-((6-Methoxy-1H-indazol-5-yl)amino)pyrimidin-4-yl)isobutyramide] | 45 |
| COc1c(Nc2cc(NC(=O)C3CC3)ncn2)ccc2c1C(C)(C)N(C)C2=O [Compound 73, 5-((6-(Cyclopropionamido)pyrimidin-4-yl)amino)-4-methoxy-2,3,3-trimethylisoindole-1-one] | 188 |

Continued by falling IC50, values first:

| IC50 [nM] | SMILES |
| --- | --- |
| 600 | COc1cc2[nH]ncc2cc1Nc1ncnc(N)c1C#N [Compound 42, 5-((6-Amino-5-cyanopyrimidin-4-yl)amino)-6-methoxy-1H-indazole] |
| 323 | COc1cc2[nH]ncc2cc1Nc1ncncc1Nc1ccccc1 [Compound 57, 5-(5-Anilinopyrimidin-4-yl) amino)-6-methoxy-1H-indazole formate] |
| 254 | COc1nc2[nH]ncc2cc1Nc1cc(NC(C)=O)ncn1 [Compound 50, 5-(6-(Acetamido)pyrimidin-4-yl) amino)-6-methoxy-1H-pyrazolo [3,4-b] pyridine formate] |
| 154 | CNc1cncnc1Nc1ccc2c(c1OC)CNC2=O [Compound 82, 5-((5-Methylaminopyrimidin-4-yl)amino)-4-methoxyisodihydroindole-1-one formate] |
| 97.1 | COc1cn2nccc2cc1Nc1cc(NC(=O)C2CC2)ncn1 [Compound 63, N-(6-((6-Methoxypyrazolo[1,5-a]pyridin-5-yl)amino)pyrimidin-4-yl)cyclopropanecarboxamide] |
| 75.3 | CNc1cncnc1Nc1cc2cn[nH]c2cc1OC [Compound 62, 5-(5-Methylaminopyrimidin-4-yl) amino)-6-methoxy-1H-indazole formate] |
| 57.9 | COc1cc2[nH]ncc2cc1Nc1cc(Nc2cnccn2)ncn1 [Compound 29, 5-(6-(Pyrazin-2-ylamino)pyrimidin-4-ylamino)-6-methoxy-1H-indazole] |
| 44.9 | CC(C)Oc1cc2[nH]ncc2cc1Nc1cc(NC(=O)C2CC2)ncn1 [Compound 7, 5-(6-cyclopropionamidopyrimidin-4-ylamino)-6-isopropoxy-1H-indazole formate] |
| 43.8 | COc1cc2[nH]ncc2cc1Nc1cc(Nc2ncccn2)ncn1 [Compound 27, 5-(6-(Pyrimidin-2-ylamino)pyrimidin-4-ylamino)-6-methoxy-1H-indazole] |
| 36.6 | COc1cc2[nH]ncc2cc1Nc1cc(Nc2ncc(Cl)cn2)ncn1 [Compound 26, 5-(6-((5-chloropyrimidin-2-yl)amino)pyrimidin-4-ylamino)-6-methoxy-1H-indazole] |
| 34.4 | COCCOc1cncnc1Nc1ccc2c(c1OC)CNC2=O [Compound 75, 5-((5-(2-Methoxyethoxy)pyrimidin-4-yl)amino)-4-methoxyisodihydroindole-1-one] |
| 31.3 | COc1cc2[nH]ncc2cc1Nc1cc(Nc2cccc(Cl)n2)ncn1 [Compound 23, 5-(6-((6-Chloropyridin-2-yl)amino)pyrimidin-4-ylamino)-6-methoxy-1H-indazole] |
| 30.5 | COc1c(Nc2cc(NC(=O)C3CC3)ncn2)ccc2c1CN(C)C2=O [Compound 72, 5-((6-(Cyclopropionamido)pyrimidin-4-yl)amino)-4-methoxy-2-methylisodihydroindol-1-one] |
| 23.8 | COc1cc2[nH]ncc2cc1Nc1cc(NC(=O)c2ccccc2)ncn1 [Compound 10, 5-(6-benzoylaminopyrimidin-4-ylamino)-6-methoxy-1H-indazole] |
| 23.3 | COc1cc2[nH]ncc2cc1Nc1cc(Nc2ccncn2)ncn1 [Compound 22, 5-(6-(pyrimidin-4-ylamino)pyrimidin-4-ylamino)-6-methoxy-1H-indazole formate] |
| 20.9 | COc1c(Nc2ncnc3[nH]ccc23)ccc2c1CNC2=O [Compound 79, 5-((7H-Pyrrolo[2,3-d]pyrimidin-4-yl)amino)-4-methoxyisoindolin-1-one] |
| 18.5 | COc1c(Nc2cc(Nc3cccc(Cl)n3)ncn2)ccc2c1CNC2=O [Compound 86, 5-((6-((6-Chloropyridin-2-yl)amino)pyrimidin-4-yl)amino)-4-methoxyisoindolin-1-one] |

Reference: patent US20220289719A1, “HETEROCYCLIC COMPOUNDS AS MNK INHIBITORS” (NANJING INNOCARE PHARMA TECH CO., LTD., priority 2017, published 2022)
